The NIST ThermoML archive (doi:10.1007/s10765-009-0651-x)

What was measured:
[1] = wn = mass fraction of the nth substance listed; settings: 101 kPa, Liquid

Cn1cc[n+](C)c1.[Cl-] [1,3-dimethylimidazolium chloride]
Settings | Normal melting temperature [°C]
Crystal, visual observation | 126.00

Cn1cc[n+](C)c1.[Cl-] [1,3-dimethylimidazolium chloride] + O
mass density [kg/m3], [1]
Settings | w2 = 0.2004 | w2 = 0.3015 | w2 = 0.4019 | w2 = 0.5001 | w2 = 0.5992 | w2 = 0.7003 | w2 = 0.8003 | w2 = 0.898
293.15 K | 1157.78 | 1135.29 | 1111.77 | 1089.04 | 1067.56 | 1047.52 | 1030.53 | 1014.07
298.15 K | 1154.79 | 1132.4 | 1109.03 | 1087.14 | 1065.77 | 1045.81 | 1027.98 | 1012.2
303.15 K | 1152.15 | 1129.93 | 1106.69 | 1084.55 | 1063.34 | 1043.7 | 1026.15 | 1010.57
308.15 K | 1149.31 | 1127.15 | 1104.22 | 1082.68 | 1061.63 | 1041.8 | 1024.53 | 1008.86
313.15 K | 1146.46 | 1124.33 | 1101.07 | 1080.38 | 1059.44 | 1039.52 | 1022.66 | 1007.2
318.15 K | 1143.59 | 1121.85 | 1098.34 | 1078.58 | 1057.08 | 1037.12 | 1021.05 | 1005.65

CC#N [acetonitrile]
Settings | mass density [kg/m3]
308.1 K, 101.33 kPa, Liquid, Vibrating tube method | 765.98
